Test results published in ChEMBL document CHEMBL4421724, “2-benzoylaminobenzamide derivatives as bcl-3 inhibitors” (2016).
Activity calls are given as the source filed them. No cut-off for these calls is given here.

What was measured:
MDA-MB-231 [1] = assay: Inhibition of cell migration of human MDA-MB-231 cells overexpressing Bcl-3 assessed as reduction in cell motility incubated for 24 hrs by Boyden chamber assay; assay type: functional, cell-based; details: MDA-MB-231, 24 h
HEK293 = assay: Toxicity against HEK293 cells assessed as reduction in cell viability at 10 uM incubated for 24 hrs by cell titre blue viability assay relative to control; assay type: cell-based; details: human, hek293, 24 h
MDA-MB-231 [2] = assay: Toxicity against human MDA-MB-231 cells assessed as reduction in cell viability at 10 uM incubated for 24 hrs by cell titre blue viability assay relative to control; assay type: cell-based; details: mda-mb-231, 24 h
MDA-MB-231 [3] = assay: Inhibition of cell migration of human MDA-MB-231 cells overexpressing Bcl-3 assessed as cell motility at 10 nM incubated for 24 hrs by Boyden chamber assay relative to control; assay type: functional; parameters: scale not given: the % may be the effect or the level left
[4] = target: T1, B-cell lymphoma 3 protein (Homo sapiens) (UniProt P20749); assay: Inhibition of Bcl-3 in human MDA-MB-231 cells assessed as reduction in NF-kappaB signalling at 1 uM incubated for 24 hrs by NF-kappaB promoter dependent luciferase reporter gene assay; assay type: cell-based
T1 sequence (whole entry): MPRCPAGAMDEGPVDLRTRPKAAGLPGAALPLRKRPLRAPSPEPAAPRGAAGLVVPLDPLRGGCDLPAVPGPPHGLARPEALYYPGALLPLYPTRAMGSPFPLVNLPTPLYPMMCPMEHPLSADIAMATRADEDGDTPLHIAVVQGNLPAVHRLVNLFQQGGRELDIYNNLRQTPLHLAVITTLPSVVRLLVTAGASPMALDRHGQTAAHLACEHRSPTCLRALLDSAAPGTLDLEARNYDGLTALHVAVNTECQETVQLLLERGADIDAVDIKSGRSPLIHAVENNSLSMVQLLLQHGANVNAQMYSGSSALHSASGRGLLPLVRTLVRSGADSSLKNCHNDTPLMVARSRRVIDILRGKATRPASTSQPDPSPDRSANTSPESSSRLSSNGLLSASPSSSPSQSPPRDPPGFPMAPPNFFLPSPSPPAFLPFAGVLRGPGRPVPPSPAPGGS

[5] = Solubility in water assessed per 100 ml; assay type: physicochemical; details: buffer
[6] = Solubility in diethyl ether assessed per 100 ml; assay type: physicochemical
[7] = Solubility in ethyl acetate assessed per 100 ml; assay type: physicochemical
[8] = Solubility in methanol assessed per 100 ml; assay type: physicochemical
[9] = Solubility in ethanol assessed per 100 ml; assay type: physicochemical
[10] = Solubility in DMSO assessed per 100 ml; assay type: physicochemical
[11] = Solubility in dichloromethane assessed per 100 ml; assay type: physicochemical

SMILES	Activity (HEK293)	Activity (MDA-MB-231 [2])	further results
O=C(Nc1ccccc1C(=O)NCN1CCCC1)c1ccccc1F	> 70%	> 70%	IC50 (MDA-MB-231 [1]): 3.65 µM
COc1ccc(C(=O)Nc2ccccc2C(=O)NCCN2CCOCC2)cc1	> 70%	> 70%	Activity (MDA-MB-231 [3]): <50%; inhibition [4]: Active
Cc1ccccc1C(=O)Nc1ccccc1C(=O)NCCN1CCOCC1	> 70%	> 70%	–
COc1cccc(C(=O)Nc2ccccc2C(=O)NCCN2CCOCC2)c1	> 70%	> 70%	–
O=C(Nc1ccccc1C(=O)NCCN1CCOCC1)c1ccc([N+](=O)[O-])cc1	> 70%	> 70%	–
O=C(Nc1ccc(I)cc1C(=O)NCCN1CCOCC1)c1ccccc1F	–	–	inhibition [4]: Active
O=C(Nc1ccccc1C(=O)NCCc1ccccn1)c1ccccc1F	> 70%	> 70%	–
O=C(NCCN1CCOCC1)c1ccccc1NC(=O)c1c(F)cccc1F	> 90%	> 90%	–
COc1cccc(C(=O)NCCN2CCOCC2)c1NC(=O)c1ccccc1F	> 70%	> 70%	–
O=C(NCCN1CCOCC1)c1ccccc1NC(=O)c1ccccc1[N+](=O)[O-]	> 70%	> 70%	–
O=C(Nc1ccccc1C(=O)NCCN1CCOCC1)c1ccccc1F [listing 1 of 2 here]	> 70%	> 70%	solubility [5]: < 0.01 g; solubility [6]: 0.09 g; solubility [7]: 0.34 g; solubility [8]: 0.2 g; solubility [9]: 0.09 g; solubility [10]: 3.71 g; solubility [11]: 2.91 g
NCCNC(=O)c1ccccc1NC(=O)c1ccccc1F	> 70%	> 70%	–
O=C(Nc1ccccc1C(=O)NCCN1CCOCC1)c1ccccc1F [listing 2 of 2 here]	–	–	inhibition [4]: Active
Cc1cccc(C(=O)NCCN2CCOCC2)c1NC(=O)c1ccccc1F	> 70%	> 70%	–
O=C(Nc1ccccc1C(=O)NCCN1CCOCC1)c1ccc(F)cc1F	> 90%	> 90%	–
COc1ccc(C(=O)Nc2ccccc2C(=O)NCCN2CCOCC2)cc1OC	> 90%	> 90%	–
Cl.O=C(Nc1ccccc1C(=O)NCCN1CCOCC1)c1ccccc1F	–	–	solubility [5]: 0.95 g; solubility [6]: 0.01 g; solubility [7]: 0.02 g; solubility [8]: 0.59 g; solubility [9]: 0.19 g; solubility [10]: < 0.01 g; solubility [11]: 0.9 g
O=C(Nc1ccccc1C(=O)NCCN1CCOCC1)c1cc(F)cc(F)c1	> 90%	> 90%	–
O=C(Nc1ccccc1C(=O)NCCCN1CCOCC1)c1ccccc1F	> 70%	> 70%	inhibition [4]: Active
COc1cc(C(=O)Nc2ccccc2C(=O)NCCN2CCOCC2)cc(OC)c1OC	> 90%	> 90%	–
COc1cc(OC)cc(C(=O)Nc2ccccc2C(=O)NCCN2CCOCC2)c1	> 90%	> 90%	–
O=C(Nc1ccccc1C(=O)NCCN1CCOCC1)c1ccc(F)cc1	> 70%	> 70%	–
O=C(Nc1ccccc1C(=O)NCCN1CCCCC1)c1ccccc1F	> 70%	> 70%	inhibition [4]: Active
O=C(Nc1cccc(Cl)c1C(=O)NCCN1CCOCC1)c1ccccc1F	> 70%	> 70%	–
